Holding throughout (assay type): in vitro ADME
The nature of series [1]: Stability of peptides in human plasma. The conditions noted are these: human, plasma; for metabolised at 24 h, 2 μM: pH 7.8. The method in brief: (§1)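 Peptides at 2 μM final incubated 0–24 h at 37 °C (50 mM triethanolamine-HCl, pH 7.8) in each matrix, matrix level set to degrade ~50% PTH(1-34) in 1 h; TFA-quenched, C18 HPLC at 206 nm with ESI-MS peak identification; percent degradation from peak areas at each time point.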

A short description of series [2]: Stability of peptides in human liver microsomes. The conditions noted are these: human, microsomes; for % degradation of peptides in 24 h when incubated with liver microsomes: 2 μM, pH 7.8. The method in brief: as §1
A general note: Liver microsomes are a subcellular fraction often used to study metabolism.

The nature of series [3]: Stability of peptides in simulated gastric fluid (pH 1.5; HCl, NaCl and Pepsin). The following applies: pH 1.5; for % degradation of peptides in 24 h when incubated with simulated gastric fluid: 2 μM.
Series [4] can be described thus: Stability of peptides in simulated intestinal fluid (pH 7.5). The conditions noted are these: pH 7.5; for % degradation of peptides in 24 h when incubated with simulated intestinal fluid: 2 μM. A digest of the protocol:
as §1

Molecules are shown by their SMILES. Where a SMILES comes first, the peptide text is derived from it. [ ]: non-standard residue; d: D form. ξ: configuration not given here. Arg(NO2) = N=C(NCCC[C@H](N)C(=O)O)N[N+](=O)[O-]; ξαMePhe(2,6-F2) = CC(N)(Cc1c(F)cccc1F)C(=O)O; ξαMePhe(2-F) = CC(N)(Cc1ccccc1F)C(=O)O; hArg = N=C(N)NCCCC[C@H](N)C(=O)O; hCit = NC(=O)NCCCC[C@H](N)C(=O)O; Cit = NC(=O)NCCC[C@H](N)C(=O)O; Nle = CCCC[C@H](N)C(=O)O; Ac5c = NC1(C(=O)O)CCCC1; Aib = CC(C)(N)C(=O)O

What is called half-life is the time in which the quantity being followed falls by half. As to `CCCC[C@H](NC(=O)C(C)(Cc1c(F)cccc1F)NC(=O)[C@H](CCC(N)=O)NC(=O)[C@@H](NC(=O)[C@H](CCC(=O)O)NC(=O)C(C)(C)NC(=O)[C@@H](NC(=O)C(C)(C)N)C(C)C)[C@@H](C)CC)C(=O)N[C@@H](Cc1c[nH]cn1)C(=O)N[C@@H](CCC(N)=O)C(=O)NC(C)(C)C(=O)NC(C)(C)C(=O)N[C@@H](CCCNC(=N)N[N+](=O)[O-])C(=O)NC(C)(Cc1ccccc1F)C(N)=O` (some centres unmarked) [Seq. ID. 590] (H-[Aib]V[Aib]EIQ[ξαMePhe(2,6-F2)][Nle]HQ[Aib][Aib][Arg(NO2)][ξαMePhe(2-F)]-NH2), in series [1], the half-life was over 24 h and the metabolised at 24 h, 2 μM was found to be 0%. Besides, in series [2], the “half-life (t1/2) in liver microsomes” value is listed as “(5) h” and the “% degradation of peptides in 24 h when incubated with liver microsomes” value (shortened to “% degradation … with liver microsomes”) is reported as 35%. In addition, the “% degradation of peptides in 24 h when incubated with simulated gastric fluid” value (shortened to “% degradation … with simulated gastric fluid”) in series [3] is given as 00%. In series [3] (simulated gi fluid), this compound registered a half-life of over 24 h. Further, the half-life in series [4] (simulated gi fluid) is over 24 h. Besides, in series [4], the “% degradation of peptides in 24 h when incubated with simulated intestinal fluid” value (from here on “% degradation … with simulated intestinal fluid”) is recorded as 00%.
Consider `CCCC[C@H](NC(=O)C(C)(Cc1ccccc1F)NC(=O)[C@H](CCC(N)=O)NC(=O)[C@@H](NC(=O)[C@H](CCC(=O)O)NC(=O)C(C)(C)NC(=O)[C@@H](NC(=O)C(C)(C)N)C(C)C)[C@@H](C)CC)C(=O)N[C@@H](Cc1c[nH]cn1)C(=O)N[C@@H](CCC(N)=O)C(=O)NC(C)(Cc1c(F)cccc1F)C(=O)NC(C)(C)C(=O)NC(C)(C)C(=O)NC(C)(Cc1ccccc1F)C(N)=O` (some centres unmarked) [Seq. ID. 490] (H-[Aib]V[Aib]EIQ[ξαMePhe(2-F)][Nle]HQ[ξαMePhe(2,6-F2)][Aib][Aib][ξαMePhe(2-F)]-NH2), for which the half-life in series [1] is over 24 h; in series [2], 2 h; in series [3] (simulated gi fluid), 4 h; in series [4] (simulated gi fluid), over 24 h. The metabolised at 24 h, 2 μM in series [1] came to 0%. Further, the “% degradation … with liver microsomes” value in series [2] was 84%. The “% degradation … with simulated gastric fluid” value in series [3] was 43%. Besides, in series [4], the “% degradation … with simulated intestinal fluid” value is given as 00%.
In series [1], `CCCC[C@H](NC(=O)C(C)(Cc1ccccc1F)NC(=O)[C@H](CCC(N)=O)NC(=O)[C@@H](NC(=O)[C@H](CCC(=O)O)NC(=O)C(C)(C)NC(=O)[C@@H](NC(=O)C1(N)CCCC1)C(C)C)[C@@H](C)CC)C(=O)N[C@@H](Cc1c[nH]cn1)C(=O)N[C@@H](CCC(N)=O)C(=O)N[C@@H](CCCCNC(N)=O)C(=O)N[C@@H](C)C(=O)N[C@@H](CCCNC(N)=O)C(=O)NC(C)(Cc1ccccc1F)C(N)=O` (some centres unmarked) [Seq. ID. 411] (H-[Ac5c]V[Aib]EIQ[ξαMePhe(2-F)][Nle]HQ[hCit]A[Cit][ξαMePhe(2-F)]-NH2) returned a half-life of 8 h and a metabolised at 24 h, 2 μM of 77%. Besides, in series [2], the half-life is 1 h and the “% degradation … with liver microsomes” value turned out to be 81%. In addition, in series [3], the “% degradation … with simulated gastric fluid” value is 14%. Further, in series [3] (simulated gi fluid), the “half-life (t1/2) in simulated gastric fluid” value is reported as “(8) h”. In addition, the “half-life (t1/2) in simulated intestinal fluid” value in series [4] (simulated gi fluid) is “(6) h”. In addition, in series [4], the “% degradation … with simulated intestinal fluid” value is 45%.
Turning to `CCCC[C@H](NC(=O)C(C)(Cc1ccccc1F)NC(=O)[C@H](CCC(N)=O)NC(=O)[C@@H](NC(=O)[C@H](CCC(=O)O)NC(=O)C(C)(C)NC(=O)[C@@H](NC(=O)C(C)(C)N)C(C)C)[C@@H](C)CC)C(=O)N[C@@H](Cc1c[nH]cn1)C(=O)N[C@@H](CCC(N)=O)C(=O)N[C@@H](CCCCNC(=N)N)C(=O)NC(C)(C)C(=O)NC(C)(C)C(=O)NC(C)(Cc1c(F)cccc1F)C(N)=O` (some centres unmarked) [Seq. ID. 182] (H-[Aib]V[Aib]EIQ[ξαMePhe(2-F)][Nle]HQ[hArg][Aib][Aib][ξαMePhe(2,6-F2)]-NH2), the half-life in series [1], in series [3] (simulated gi fluid) and in series [4] (simulated gi fluid) was over 24 h throughout. Besides, the metabolised at 24 h, 2 μM in series [1] is 0%. Further, the “half-life (t1/2) in liver microsomes” value in series [2] is on record as “(5) h”. In addition, the “% degradation … with liver microsomes” value in series [2] was found to be 26%. For the same compound, the “% degradation … with simulated gastric fluid” value in series [3] is 00%. The “% degradation … with simulated intestinal fluid” value in series [4] is given as 00%.

The values above are taken from patent publication US8383581B2, “Short-chain peptides as parathyroid hormone (PTH) receptor agonist” (Cadila Healthcare Limited, priority 2009, dated 2013).
